Data set [1] is described as follows: Viscosity of contrast medium solutions. Type of data set: physicochemical. The following applies: for Viscosity: 37° C.
Data set [2] deals with mouse. In words: LD50 mouse i.v. Type of data set: in vivo.
Data set [3] can be described thus: Osmolality of contrast medium solutions. Type of data set: physicochemical.
The nature of data set [4]: Renal excretion. The following applies: in words. It is filed as in vivo.
The nature of data set [5]: Chemical stability. It is filed as physicochemical. The following applies: in words.
Data set [6] can be described thus: Water solubility. The following applies: in words. It is filed as physicochemical.

Structures are written as SMILES.

These results are taken from patent US5232685A, “Nonionic x-ray contrast medium with high iodine content” (Schering Aktiengesellschaft, priority 1989, dated 1993).

`C[C@H](O)C(=O)Nc1c(I)c(C(=O)NC(CO)CO)c(I)c(C(=O)NC(CO)CO)c1I` [Iopamidol]: the Viscosity in data set [1] (370 mg I/ml) was determined as 9.4 cP. The compound also came in with an LD50 in data set [2] of 15 g I/kg. This compound also showed an Osmolality in data set [3] (370 mg I/ml (37° C.)) of 830 mosm/kg H2 O.

In the case of `CC(=O)N(CC(O)CO)c1c(I)c(C(=O)NCCO)c(I)c(C(=O)NCC(O)CO)c1I` (stereo not shown) [Ioxilan], the Viscosity in data set [1] (350 mg I/ml (*)) is 8.1 cP. The “Greatest improvement of viscosity within the previously known five contrast media” value in data set [1] (Iohexol/Ioxilan (Ioxilan versus Iohexol)) was determined as 22.9%. The same compound yielded an LD50 in data set [2] of 15 g I/kg. The Osmolality in data set [3] (350 mg I/ml (*) (37° C.)) is reported as 700 mosm/kg H2 O.

As for `CN(CC(O)CO)C(=O)c1c(I)c(NC(=O)CO)c(I)c(C(=O)NCCO)c1I` (stereo not shown) [Example 1, 5-Hydroxyacetamido-2,4,6-triido-isophthalic acid-(2,3-dihydroxy-N-methyl-propyl)-(2-hydroxy-ethyl)-diamide], the Viscosity in data set [1] (370 mg I/ml) worked out at 6.6 cP. Further, the “Improvement of viscosity value” in data set [1] (in comparison with iopromide) is recorded as 30.5%. For the same compound, the Renal excretion result in data set [4] was “very quick, selective renal excretion”. In data set [2], this compound showed an LD50 of 18 g I/kg. This compound also came in with an Osmolality in data set [3] (370 mg I/ml (37° C.)) of 590 mosm/kg H2 O. The “Improvement of osmolality value” in data set [3] (in comparison with iopromide) is 23.4%. The Chemical stability result in data set [5] is given as “good chemical stability”. For the same compound, the Water solubility result in data set [6] was “very water-soluble”.

As to `CN(C(=O)CO)c1c(I)c(C(=O)NCC(O)CO)c(I)c(C(=O)NCC(O)CO)c1I` (stereo not shown) [Iomeprol], the Viscosity in data set [1] (370 mg I/ml) amounted to 8.6 cP. In data set [2], this compound had an LD50 of 14 g I/kg. In data set [3] (370 mg I/ml (37° C.)), the Osmolality is 680 mosm/kg H2 O. Also, the “Greatest improvement of osmolality within the previously known five contrast media” value in data set [3] (Iopamidol/Iomeprol (Iomeprol versus Iopamidol)) is on record as 18.1%.

For the compound `COCC(=O)Nc1c(I)c(C(=O)NCC(O)CO)c(I)c(C(=O)N(C)CC(O)CO)c1I` (stereo not shown) [Iopromide], in data set [1] (370 mg I/ml), the Viscosity is 9.5 cP. The same compound displayed an LD50 in data set [2] of 15 g I/kg. In addition, the Osmolality in data set [3] (370 mg I/ml (37° C.)) stood at 770 mosm/kg H2 O.

As to `CC(=O)N(CC(O)CO)c1c(I)c(C(=O)NCC(O)CO)c(I)c(C(=O)NCC(O)CO)c1I` (stereo not shown) [Iohexol], the Viscosity in data set [1] (350 mg I/ml (*)) was 10.5 cP. Further, in data set [2], the LD50 stood at 15 g I/kg. The compound further came in with an Osmolality in data set [3] (350 mg I/ml (*) (37° C.)) of 820 mosm/kg H2 O.
